Test results published in US8450308B2 (Vitae Pharmaceuticals, Inc., priority 2008, dated 2013).

Biological target: T1, truncated human beta-secretase (residues 1-458, His6-tagged at the C-terminus) (Homo sapiens, UniProt P56817)
T1 construct: truncated human beta-secretase (residues 1-458, His6-tagged at the C-terminus); His6 (C); made in house; host or cells: insect cells D. melanogaster S2 (baculovirus expression system (so in the source))
Assay: BACE fluorescence quench assay
Assay type: biochemical
Settings: in vitro enzyme activity, BACE fluorescence assay, pH 4.5; read-out: IC50

T1 sequence (P56817 22-458): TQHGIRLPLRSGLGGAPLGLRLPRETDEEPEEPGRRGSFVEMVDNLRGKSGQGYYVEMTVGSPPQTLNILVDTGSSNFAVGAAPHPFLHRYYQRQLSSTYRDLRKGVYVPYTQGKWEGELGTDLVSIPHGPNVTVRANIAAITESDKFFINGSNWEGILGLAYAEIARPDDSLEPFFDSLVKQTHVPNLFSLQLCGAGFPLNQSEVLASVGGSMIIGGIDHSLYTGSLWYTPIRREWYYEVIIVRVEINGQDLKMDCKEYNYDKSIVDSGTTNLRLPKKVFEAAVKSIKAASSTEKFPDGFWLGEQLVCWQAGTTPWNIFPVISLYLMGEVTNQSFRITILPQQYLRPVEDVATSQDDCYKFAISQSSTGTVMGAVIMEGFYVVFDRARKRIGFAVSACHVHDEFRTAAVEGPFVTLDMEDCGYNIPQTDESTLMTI

Row | IC50 | SMILES
1 | 1 to 5 µM | CN1OC2(CC3(CCCOC3)Oc3ccc(C#CC4CC4)cc32)N=C1N (centres unmarked) [Compound 407, 2″-methyl-6-(cyclopropylethynyl)-2″H-spiro[spiro[chroman-2,1′-(3-oxacyclohexane)]-4,5′-[1,2,4]oxadiazol]-3″-amine]
2 | 1 to 5 µM | CC(=O)N1CCC2(CC1)CC1(N=C(N)N(C)O1)c1cc(-c3cccc(C#N)c3)ccc1O2 (centres unmarked) [Compound 409, 3-(spiro[spiro(chroman-2,4′-(1-acetylpiperidine))-4,5′-(3-amino-2-methyl-2H-[1,2,4]oxadiazole)]-6-yl)benzonitrile]
3 | 1 to 5 µM | CN1C(=O)[C@@]2(C[C@]3(CCCOC3)Oc3ccc(-c4cccc(C#N)n4)cc32)N=C1N [Compound 410]
4 | 1 to 5 µM | CN1C(=O)[C@@]2(C[C@]3(CCCOC3)Oc3ccc(-c4ccco4)cc32)N=C1N [Compound 411]
5 | 1 to 5 µM | CC(C)=CC(CCO)C1CC2(N=C(N)N(C)O2)c2cc(-c3cccc(Cl)c3)ccc2O1 (centres unmarked) [Compound 412]
6 | 1 to 5 µM | Cc1ccc(C#N)cc1-c1ccc2c(c1)[C@]1(C[C@@]3(CCCOC3)O2)N=C(N)N(C)C1=O [Compound 413]
7 | 1 to 5 µM | Cc1ccc(-c2ccc3c(c2)C2(CC4(CCCOC4)O3)N=C(N)N(C)C2=O)s1 (centres unmarked) [Compound 414]
8 | 1 to 5 µM | CN1OC2(CC3(CCCC(c4ccccc4)C3)Oc3ccc(-c4cccc(C#N)c4)cc32)N=C1N (centres unmarked) [Compound 415]
9 | 1 to 5 µM | CN1OC2(C[C@@]3(CCCC4CCCCC43)Oc3ccc(-c4cccc(C#N)c4)cc32)N=C1N (some centres unmarked) [Compound 416]
10 | 1 to 5 µM | CN1C(=O)C2(CC(C3CCOC(C)(C)C3)Oc3ccc(-c4cc(F)cc(Cl)c4)cc32)N=C1N (centres unmarked) [Compound 417]
11 | 1 to 5 µM | CC(C)=C[C@H](CCO)[C@@H]1C[C@@]2(N=C(N)N(C)O2)c2cc(-c3cc(F)cc(F)c3)ccc2O1 [Compound 419]
12 | 1 to 5 µM | CC(C)=CC(CCO)[C@H]1C[C@@]2(N=C(N)N(C)O2)c2cc(-c3cc(F)cc(F)c3F)ccc2O1 (some centres unmarked) [Compound 420]
13 | 1 to 5 µM | CC(C)=CC(CCO)[C@H]1C[C@@]2(N=C(N)N(C)O2)c2cc(-c3cc(F)cc(F)c3)ccc2O1 (some centres unmarked) [Compound 421]
14 | 1 to 5 µM | CN1OC2(CC(C3COc4ccccc4C3)Oc3ccc(-c4cccc(C#N)c4)cc32)N=C1N (centres unmarked) [Compound 422]
15 | 1 to 5 µM | CC(C)=C[C@H](CCO)[C@@H]1C[C@@]2(N=C(N)N(C)O2)c2cc(-c3cccc(C(F)(F)F)c3)ccc2O1 [Compound 423]
16 | 1 to 5 µM | CN1C(=O)[C@@]2(C[C@]3(CCCOC3)Oc3ccc(-c4cccc(-n5cccc5)n4)cc32)N=C1N [Compound 424]
17 | 1 to 5 µM | CC(C)=CC(CCO)C1CC2(N=C(N)N(C)O2)c2cc(-c3cc(C#N)ccc3C)ccc2O1 (centres unmarked) [Compound 425]
18 | 1 to 5 µM | CN1C(=O)[C@@]2(C[C@]3(CCCOC3)Oc3ccc(-c4cccc(Cl)n4)cc32)N=C1N [Compound 426]
19 | 1 to 5 µM | CC(=O)c1cccc(-c2ccc3c(c2)[C@]2(C[C@@]4(CCCOC4)O3)N=C(N)N(C)C2=O)c1 [Compound 427]
20 | 1 to 5 µM | COc1ccc(-c2ccc3c(c2)[C@]2(C[C@]4(CCCOC4)O3)N=C(N)N(C)C2=O)cc1OC [Compound 428]
21 | 1 to 5 µM | CCOC(=O)c1cccc(-c2ccc3c(c2)[C@]2(C[C@@]4(CCCOC4)O3)N=C(N)N(C)C2=O)c1 [Compound 429]
22 | 1 to 5 µM | CC(C)=CC(CCO)C1CC2(N=C(N)N(C)O2)c2cc(-c3cccc(C#N)c3F)ccc2O1 (centres unmarked) [Compound 430]
23 | 1 to 5 µM | CN1C(=O)C2(CC(C3CCOC(C)(C)C3)Oc3ccc(-c4ccc(F)c(F)c4)cc32)N=C1N (centres unmarked) [Compound 431]
24 | 5 to 10 µM | CN1C(=O)[C@@]2(C[C@]3(CCCOC3)Oc3ccc(-c4ccc5cn[nH]c5c4)cc32)N=C1N [Compound 433]

Row | IC50 | SMILES
25 | 5 to 10 µM | CC(C)=CC(CCO)C1CC2(N=C(N)N(C)O2)c2cc(-c3cc(F)ccc3F)ccc2O1 (centres unmarked) [Compound 434]
26 | 5 to 10 µM | CN1C(=O)[C@@]2(C[C@@]3(CCCOC3)Oc3ccc(-c4cc(CO)ccc4F)cc32)N=C1N [Compound 435]
27 | 5 to 10 µM | CC(C)=CC(CCO)C1CC2(N=C(N)N(C)O2)c2cc(-c3cccc(F)c3)ccc2O1 (centres unmarked) [Compound 436]
28 | 5 to 10 µM | Cc1ccc(C#N)cc1-c1ccc2c(c1)[C@]1(C[C@@H](C3CCOC(C)(C)C3)O2)N=C(N)N(C)C1=O (some centres unmarked) [Compound 437]
29 | 5 to 10 µM | CN1OC2(CC3(CCS(=O)(=O)CC3)Oc3ccc(-c4cccc(C#N)c4)cc32)N=C1N (centres unmarked) [Compound 438]
30 | 5 to 10 µM | CN1C(=O)C2(CC3(CCCOC3)Oc3ccc(-c4cccc(-n5ccnc5)n4)cc32)N=C1N (centres unmarked) [Compound 439]
31 | 5 to 10 µM | Cc1cccc(-c2ccc3c(c2)[C@]2(C[C@@]4(CCCOC4)O3)N=C(N)N(C)C2=O)c1C [Compound 440]
32 | 5 to 10 µM | CC(C)=C[C@H](CCO)[C@@H]1C[C@@]2(N=C(N)N(C)O2)c2cc(-c3cc(F)cc(F)c3F)ccc2O1 [Compound 441]
33 | 5 to 10 µM | CC(C)=CC(CCO)[C@H]1C[C@@]2(N=C(N)N(C)O2)c2cc(-c3cccc(C(F)(F)F)c3)ccc2O1 (some centres unmarked) [Compound 442]
34 | 5 to 10 µM | CN1OC2(CC3(CCCC4CCCCC43)Oc3ccc(-c4cccc(C#N)c4)cc32)N=C1N (centres unmarked) [Compound 443]
35 | 5 to 10 µM | CC(C)=CC(CCO)[C@@H]1C[C@@]2(N=C(N)N(C)O2)c2cc(-c3cc(F)cc(F)c3)ccc2O1 (some centres unmarked) [Compound 444]
36 | 5 to 10 µM | CN1OC2(CC(C3CCOC(C)(C)C3)Oc3ccc(-c4cccc(-n5cccc5)n4)cc32)N=C1N (centres unmarked) [Compound 445]
37 | 5 to 10 µM | CN1C(=O)[C@@]2(C[C@@]3(CCCOC3)Oc3ccc(-c4cccc(C#N)n4)cc32)N=C1N [Compound 446]
38 | 5 to 10 µM | CN1C(=O)[C@@]2(C[C@@]3(CCCOC3)Oc3ccc(-c4cccc(Cl)n4)cc32)N=C1N [Compound 447]
39 | 10 to 50 µM | CN1C(=O)[C@@]2(C[C@@]3(CCCOC3)Oc3ccc(-c4ccco4)cc32)N=C1N [Compound 448]
40 | 10 to 50 µM | CN1C(=O)[C@@]2(C[C@@]3(CCCOC3)Oc3ccc(-c4cc(C#N)ccc4C(F)(F)F)cc32)N=C1N [Compound 449]
41 | 10 to 50 µM | CC(C)=CC(CCO)[C@@H]1C[C@@]2(N=C(N)N(C)O2)c2cc(-c3cccc(C(F)(F)F)c3)ccc2O1 (some centres unmarked) [Compound 450]
42 | 10 to 50 µM | CN1OC2(CC3(CCc4ccccc4CC3)Oc3ccc(-c4cccc(C#N)c4)cc32)N=C1N (centres unmarked) [Compound 451]
43 | 10 to 50 µM | CN1C(=O)C2(CC(C3CCOC(C)(C)C3)Oc3ccc(-c4cccc(F)c4)cc32)N=C1N (centres unmarked) [Compound 452]
44 | 10 to 50 µM | CN1C(=O)C2(C[C@H]([C@@H]3CCOC(C)(C)C3)Oc3ccc(-c4cccc(C#N)c4)cc32)N=C1N (some centres unmarked) [Compound 453]
45 | 10 to 50 µM | CN1OC2(CC3(CCCOC3)Oc3ccc(C#Cc4ccccc4)cc32)N=C1N (centres unmarked) [Compound 454, 2″-methyl-6-(phenylethynyl)-2″H-spiro[spiro[chroman-2,1′-(3-oxacyclohexane)]-4,5′-[1,2,4]oxadiazol]-3″-amine]
46 | 10 to 50 µM | CN1OCC2(CC3(CCCOC3)Oc3ccc(-c4cccc(C#N)c4)cc32)N=C1N (centres unmarked) [Compound 455, 3-(spiro[spiro[chroman-2,1′-(3-oxacyclohexane)]-4,5′-(3-amino-2-methyl-2,6-dihydro-[1,2,4]oxadiazine)]-6-yl)benzonitrile]
47 | 10 to 50 µM | CC(C)=CC(CCO)C1CC2(N=C(N)N(C)O2)c2cc(-c3ccc(F)c(F)c3)ccc2O1 (centres unmarked) [Compound 456]
